One may read the IC50 as the concentration that gives 50% inhibition. Read a high IC50 as lower potency.

Structures are written as SMILES. *1 amine or outer side, *2 acyl side, *3 side chain or, on linkers, in order; H or OH if unused. Where a SMILES comes first, the peptide text is derived from it. Side-chain parts run from the residue outwards. [ ]: non-standard residue; d: D form. The star is where a group is joined. ξ: configuration not given here. NH(4-MeO-phenyl) = COc1ccc(N*)cc1; ξW = NC(Cc1c[nH]c2ccccc12)C(=O)O; pNA = O=[N+]([O-])c1ccc(N*)cc1; X2 = O=[N+]([O-])c1cccc(N*)c1; NH(3-MeOPh) = COc1cccc(N*)c1; 3Abz = Nc1cccc(C(=O)O)c1; ξF = NC(Cc1ccccc1)C(=O)O; X1 = CC(=O)c1ccc(N*)cc1; ξD = NC(CC(=O)O)C(=O)O; Boc = CC(C)(C)OC(=O)*; CO = O=C([*:1])[*:2]

The record followed here is BindingDB's records for doi:10.1021/jm960509y (Abbott Laboratories, 1997).

The first experiment concerns the target Gastrin/cholecystokinin type B receptor (Cavia porcellus). Description: Displacement of [125I]- BH-CCK-8 from Cholecystokinin type B receptor of guinea pig cortex. A general note: In a radioligand displacement assay an active substance lowers the binding of a labelled ligand.
In turn, `COC(=O)c1cccc(NC(=O)NCCCC[C@H](NC(=O)C(Cc2c[nH]c3ccccc23)NC(=O)OC(C)(C)C)C(=O)NC(CC(=O)O)C(=O)NC(Cc2ccccc2)C(N)=O)c1` (some centres not stated) (Boc-[ξW]K([CO-3Abz-OMe])[ξD][ξF]-NH2) yielded an IC50 of 1000 nM.
Turning to `COc1cccc(NC(=O)NCCCC[C@H](NC(=O)C(Cc2c[nH]c3ccccc23)NC(=O)OC(C)(C)C)C(=O)NC(CC(=O)O)C(=O)NC(Cc2ccccc2)C(N)=O)c1` (stereo partly drawn) [3-{(S)-2-[2-tert-Butoxycarbonylamino-3-(1H-indol-3-yl)-propionylamino]-6-[3-(3-methoxy-phenyl)-ureido]-hexanoylamino}-N-(1-carbamoyl-2-phenyl-ethyl)-succinamic acid] (Boc-[ξW]K([CO-NH(3-MeOPh)])[ξD][ξF]-NH2), the IC50 turned out to be 1400 nM.
Compound `CC(C)(C)OC(=O)N[C@@H](Cc1c[nH]c2ccccc12)C(=O)N[C@@H](CCCCNC(=O)Nc1cccc([N+](=O)[O-])c1)C(=O)N[C@@H](CC(=O)O)C(=O)N[C@@H](Cc1ccccc1)C(N)=O` [3-{(S)-2-[2-tert-Butoxycarbonylamino-3-(1H-indol-3-yl)-propionylamino]-6-[3-(3-nitro-phenyl)-ureido]-hexanoylamino}-N-(1-carbamoyl-2-phenyl-ethyl)-succinamic acid] (Boc-WK([CO-X2])DF-NH2) returned an IC50 of 1200 nM.
The compound `COc1ccc(NC(=O)NCCCC[C@H](NC(=O)C(Cc2c[nH]c3ccccc23)NC(=O)OC(C)(C)C)C(=O)NC(CC(=O)O)C(=O)NC(Cc2ccccc2)C(N)=O)cc1` (stereo partly drawn) [3-{(S)-2-[2-tert-Butoxycarbonylamino-3-(1H-indol-3-yl)-propionylamino]-6-[3-(4-methoxy-phenyl)-ureido]-hexanoylamino}-N-(1-carbamoyl-2-phenyl-ethyl)-succinamic acid] (Boc-[ξW]K([CO-NH(4-MeO-phenyl)])[ξD][ξF]-NH2) registered an IC50 of 750 nM.
Take `CC(C)(C)OC(=O)NC(Cc1c[nH]c2ccccc12)C(=O)N[C@@H](CCCCNC(=O)Nc1ccc([N+](=O)[O-])cc1)C(=O)NC(CC(=O)O)C(=O)NC(Cc1ccccc1)C(N)=O` (stereo partly drawn) [3-{(S)-2-[2-tert-Butoxycarbonylamino-3-(1H-indol-3-yl)-propionylamino]-6-[3-(4-nitro-phenyl)-ureido]-hexanoylamino}-N-(1-carbamoyl-2-phenyl-ethyl)-succinamic acid] (Boc-[ξW]K([CO-pNA])[ξD][ξF]-NH2): the IC50 stood at 31 nM.
On to `CC(=O)c1ccc(NC(=O)NCCCC[C@H](NC(=O)C(Cc2c[nH]c3ccccc23)NC(=O)OC(C)(C)C)C(=O)NC(CC(=O)O)C(=O)NC(Cc2ccccc2)C(N)=O)cc1` (stereo partly drawn) [3-{(S)-6-[3-(4-Acetyl-phenyl)-ureido]-2-[2-tert-butoxycarbonylamino-3-(1H-indol-3-yl)-propionylamino]-hexanoylamino}-N-(1-carbamoyl-2-phenyl-ethyl)-succinamic acid] (Boc-[ξW]K([CO-X1])[ξD][ξF]-NH2), for which the IC50 came out at 12 nM.

Another experiment has the same target. Kind of experiment: Inhibitory activity against Cholecystokinin type B receptor using [125I]- BH-CCK-8 as radioligand in cortex tissue of guinea pig.
Compound `CSCCC(NC(=O)NC(CC(=O)O)C(=O)NC(Cc1ccccc1)C(N)=O)C(=O)NC(=O)C(Cc1c[nH]c2ccccc12)NC(=O)OC(C)(C)C` (configuration not stated) [3-(3-{1-[2-tert-Butoxycarbonylamino-3-(1H-indol-3-yl)-propionylcarbamoyl]-3-methylsulfanyl-propyl}-ureido)-N-(1-carbamoyl-2-phenyl-ethyl)-succinamic acid] showed a half-maximal inhibitory concentration (IC50) of 25 nM.
